In publication PMC11649397, “The study of halogen effect on the reactivity of the serine-targeting covalent warheads” (Frontiers in Chemistry, 2024):

Molecular target: T1, human pancreatic lipase (hPL) (Homo sapiens, UniProt P16233)
T1 sequence (P16233 17-465): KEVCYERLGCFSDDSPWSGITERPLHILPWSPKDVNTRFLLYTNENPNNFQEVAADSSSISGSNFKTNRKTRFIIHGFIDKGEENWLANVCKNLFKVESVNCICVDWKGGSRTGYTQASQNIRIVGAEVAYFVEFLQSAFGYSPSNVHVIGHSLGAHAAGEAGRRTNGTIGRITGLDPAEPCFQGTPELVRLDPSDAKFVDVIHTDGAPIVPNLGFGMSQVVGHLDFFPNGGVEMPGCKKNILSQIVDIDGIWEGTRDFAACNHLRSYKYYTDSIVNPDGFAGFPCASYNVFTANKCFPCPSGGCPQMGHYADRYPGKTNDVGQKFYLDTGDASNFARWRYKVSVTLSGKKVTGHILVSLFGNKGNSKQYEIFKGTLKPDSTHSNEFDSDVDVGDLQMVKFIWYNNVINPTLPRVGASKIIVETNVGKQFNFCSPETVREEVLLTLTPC
Experiment: Inhibition assay on human pancreatic lipase (substrate DDAO-ol)
Type: biochemical
Details: 10 μM, selectivity screening
Description: 1. Detailed experimental, materials, and methods
The household library of covalent fragments including D and F was from Organic Chemistry […]
Fig. S1. Partial fragment molecules of a household library targeting to serine.
Commercially available materials were ordered from commercial suppliers (Bidepharm, Shanghai, China) and used without further purification. Structures were checked by 1H- and 13C-NMR spectra on a Bruker AVANCE 600/125 MHz instrument for confirmation, using DMSO- d6 or CDCl 3 as the solvent. Molecular orbitals were calculated using Gaussian 09W and image generated by GaussView 6.0.1
Inhibition assay on hCES1A
In this study, a known bioluminogenic probe substrate NLMe was used for human carboxylesterase 1 (hCES1A) inhibition assays. […]
The luminescence signals were monitored in the microplate reader (SpectraMax iD3Molecular […]
Human carboxylesterase 2 (hCES2A) inhibition assays were conducted using FD, a known fluorescent substrate. […] The fluorescent signals (excitation/emission, 480 nm/525 nm) were continuously recorded by a microplate reader (SpectraMax iD3Molecular Devices, Austria). […]
fluorogenic probe. […] The fluorescent signals of hydrolytic product were quantified by using the microplate reader (Spectra Max M4, Austria), with the wavelength of 600 nm and 660 nm for excitation and emission, respectively. […]

Row | Structure (SMILES) | response to hPL
1 | O=C(c1ccccc1)C(F)(F)F [F, 2,2,2-trifluoroacetophenone] | no potent responses
2 | O=S(=O)(F)c1ccc(Br)cc1 [D, 4-bromobenzenesulfonyl fluoride] | no potent responses
